Measured values from publication PMC6986443, “T‐495, a novel low cooperative M1 receptor positive allosteric modulator, improves memory deficits associated with cholinergic dysfunction and is characterized by low gastrointestinal side effect risk” (Pharmacology Research & Perspectives, 2020).

How the values were obtained:
[1] = test system: patients with AD; set-up: method as in PMID 29955661; settings: cited from earlier work
[2] = test system: selectivity panel; settings: cited from earlier work
[3] = test system: panel of 106 targets, including receptors, enzymes, ion channels, and transporters; assay: Selectivity panel (Eurofins Panlabs), overall; settings: 10 μmol/L
Text: (§1) The selectivity of T‐495 at 10 μmol/L against a panel of 106 targets, including receptors, enzymes, ion channels, and transporters, was characterized (Eurofins Panlabs Taiwan Ltd., Taipei, Taiwan).

[4] = test system: CaMKIIα‐tTA/A53T α‐syn dTg mice; assay: Contextual fear conditioning (CFC) test; format: in vivo, mouse
Method: The CFC test was performed in a clear conditioning chamber (33 cm wide, 25 cm long, and 28 cm high; O’Hara & Co., Ltd.) surrounded by a sound‐attenuating box. The illumination in the chamber was maintained at 100 lux. Conditioned stimulus (CS) and unconditioned stimulus (US) were automatically delivered by a tone generator and a shock generator (O’Hara & Co., Ltd.), respectively. On Day 1 (habituation phase), vehicle was orally administered, and mice were placed in the conditioning chamber. They were allowed to freely explore for 120 seconds and then returned to their home cages. […] Mice were placed in the chamber for 120 seconds before the onset of a tone (CS, 60 dB for 30 s). The last 2 seconds of the CS were paired with a foot shock (US, 0.25 mA), and mice were removed and returned to their home cages 180 seconds after the US. […] Mice were again placed in the same chamber for 180 seconds. Freezing behavior was analyzed using ImageJ FZ4 (O’Hara & Co., Ltd.) during the conditioning and retention phases.

[5] = test system: CaMKIIα‐tTA/A53T α‐syn dTg mice; assay: Y‐maze task; format: in vivo, mouse; settings: 3 mg/kg p.o.
Method: The Y‐maze was fabricated from gray plastic and consisted of three arms (40 cm long, 12 cm high, 3 cm wide at the bottom, and 10 cm wide at the top) with an angle of 120°. Visual cues were placed outside each arm, and the apparatus was illuminated at 10 lux. […] An arm entry was defined as all four paws of the mouse being in the arm, and the sequence of arm entries was monitored with a video camera and counted manually. An alternation was defined as successive entries into the three arms on overlapping triplet sets.36 The percentage of alternation was calculated as the ratio of actual to possible alternations (total number of arm entries minus 2) multiplied by 100.

[6] = test system: ATPase, Ca2+, Skeletal Muscle; assay: Selectivity panel; format: biochemical
Text: as §1

[7] = molecular target: T1, Carbonic anhydrase II (Homo sapiens, UniProt P00918); assay: Selectivity panel; format: biochemical
T1 construct: purchased Eurofins Panlabs Taiwan Ltd
Text: as §1

[8] = molecular target: T2, Choline esterase, acetyl, ACES (Homo sapiens, UniProt P22303); assay: Selectivity panel; format: biochemical
T2 construct: purchased Eurofins Panlabs Taiwan Ltd
Text: as §1

[9] = molecular target: T3, Lipoxygenase (5-LO) (Homo sapiens, UniProt P09917); assay: Selectivity panel; format: biochemical
T3 construct: purchased Eurofins Panlabs Taiwan Ltd
Text: as §1

[10] = molecular target: T4, Metalloproteinase, Neutral Endopeptidase (Homo sapiens, UniProt P08473); assay: Selectivity panel; format: biochemical
T4 construct: purchased Eurofins Panlabs Taiwan Ltd
Text: as §1

[11] = molecular target: T5, Monoamine oxidase A (MAO-A) (Homo sapiens, UniProt P21397); assay: Selectivity panel; format: biochemical
T5 construct: purchased Eurofins Panlabs Taiwan Ltd
Text: as §1

[12] = molecular target: T6, Phosphodiesterase PDE10A2 (Homo sapiens, UniProt Q9Y233); assay: Selectivity panel; format: biochemical
T6 construct: purchased Eurofins Panlabs Taiwan Ltd
Text: as §1

[13] = test system: Protein kinase C (PKC), non-selective; assay: Selectivity panel; format: biochemical
Text: as §1

[14] = molecular target: T7, Xanthine oxidase (Bos taurus, UniProt P80457); assay: Selectivity panel; format: biochemical
T7 construct: purchased Eurofins Panlabs Taiwan Ltd
Text: as §1

[15] = molecular target: T8, Adenosine A2A (Homo sapiens, UniProt P29274); assay: Selectivity panel; format: binding
T8 construct: purchased Eurofins Panlabs Taiwan Ltd
Text: as §1

[16] = molecular target: T9, Cholecystokinin CCK1 (CCKA) (Homo sapiens, UniProt P32238); assay: Selectivity panel; format: binding
T9 construct: purchased Eurofins Panlabs Taiwan Ltd
Text: as §1

[17] = test system: Glutamate, NMDA; assay: Selectivity panel; format: binding
Text: as §1

[18] = test system: Glycine, strychnine-sensitive; assay: Selectivity panel; format: binding
Text: as §1

[19] = molecular target: T10, Histamine H1 (Homo sapiens, UniProt P35367); assay: Selectivity panel; format: binding
T10 construct: purchased Eurofins Panlabs Taiwan Ltd
Text: as §1

[20] = test system: Nicotinic acetylcholine; assay: Selectivity panel; format: binding
Text: as §1

[21] = test system: Potassium channel (KATP); assay: Selectivity panel; format: binding
Text: as §1

[22] = molecular target: T11, Progesterone PR-B (Homo sapiens, UniProt P06401); assay: Selectivity panel; format: binding
T11 construct: purchased Eurofins Panlabs Taiwan Ltd
Text: as §1

[23] = molecular target: T12, Serotonin 5-HT2A (Homo sapiens, UniProt P28223); assay: Selectivity panel; format: binding
T12 construct: purchased Eurofins Panlabs Taiwan Ltd
Text: as §1

[24] = molecular target: T13, human M1R (Homo sapiens, UniProt P11229); assay: [3H]‐NMS binding assay; set-up: expressed in transfected cells
T13 sequence (P11229 1-460): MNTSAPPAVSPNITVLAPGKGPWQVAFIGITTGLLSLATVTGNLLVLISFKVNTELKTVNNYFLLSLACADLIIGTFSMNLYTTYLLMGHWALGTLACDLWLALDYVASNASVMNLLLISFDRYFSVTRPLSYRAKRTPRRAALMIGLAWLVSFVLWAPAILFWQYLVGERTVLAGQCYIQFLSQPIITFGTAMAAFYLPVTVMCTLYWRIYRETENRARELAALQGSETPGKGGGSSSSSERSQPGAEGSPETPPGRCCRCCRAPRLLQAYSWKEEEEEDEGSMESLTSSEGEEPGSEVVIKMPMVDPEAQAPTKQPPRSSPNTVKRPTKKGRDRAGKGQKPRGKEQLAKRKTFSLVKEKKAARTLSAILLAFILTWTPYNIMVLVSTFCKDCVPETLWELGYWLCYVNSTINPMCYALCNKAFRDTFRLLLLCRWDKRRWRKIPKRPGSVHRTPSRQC
Method: Cell membranes from FreeStyle 293 cells transiently expressing human M1R were incubated with T‐495 (0.01‐30 μmol/L) and 0.2 nmol/L [^3H]‐NMS (PerkinElmer) in assay buffer as described above. After 2 hours at room temperature, the binding was terminated by filtration through GF/C filter plates using a cell harvester and washed five times with 300 μl of 50 mmol/L Tris‐HCl. GF/C plates were dried at 42°C and then 25 μl of microscint 0 was added. Radioactivity was measured by Topcount.

T11 sequence (P06401 whole entry): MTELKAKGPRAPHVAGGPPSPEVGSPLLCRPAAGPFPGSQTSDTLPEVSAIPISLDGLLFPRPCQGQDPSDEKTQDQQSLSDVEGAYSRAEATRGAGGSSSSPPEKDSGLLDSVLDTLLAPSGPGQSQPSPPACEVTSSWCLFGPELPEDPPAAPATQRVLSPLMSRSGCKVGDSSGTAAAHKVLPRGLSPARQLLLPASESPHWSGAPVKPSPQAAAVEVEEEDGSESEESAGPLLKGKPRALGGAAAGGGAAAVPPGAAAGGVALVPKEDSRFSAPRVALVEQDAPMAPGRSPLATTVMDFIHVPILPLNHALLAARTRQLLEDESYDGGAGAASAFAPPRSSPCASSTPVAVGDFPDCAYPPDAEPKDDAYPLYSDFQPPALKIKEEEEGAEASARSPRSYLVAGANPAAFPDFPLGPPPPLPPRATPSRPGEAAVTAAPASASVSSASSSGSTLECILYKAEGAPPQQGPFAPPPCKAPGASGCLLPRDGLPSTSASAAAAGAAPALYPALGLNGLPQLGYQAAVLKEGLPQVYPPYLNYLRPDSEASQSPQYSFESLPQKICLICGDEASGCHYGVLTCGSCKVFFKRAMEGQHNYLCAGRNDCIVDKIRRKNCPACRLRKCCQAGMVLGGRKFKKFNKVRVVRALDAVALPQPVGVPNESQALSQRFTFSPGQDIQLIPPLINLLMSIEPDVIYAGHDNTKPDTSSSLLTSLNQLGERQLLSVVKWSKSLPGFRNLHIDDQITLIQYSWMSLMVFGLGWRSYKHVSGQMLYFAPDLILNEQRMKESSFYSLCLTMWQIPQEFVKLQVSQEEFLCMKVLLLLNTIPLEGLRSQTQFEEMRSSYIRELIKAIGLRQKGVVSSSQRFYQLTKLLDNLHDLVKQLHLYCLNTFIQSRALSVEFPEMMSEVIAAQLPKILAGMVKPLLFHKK
T4 sequence (P08473 whole entry): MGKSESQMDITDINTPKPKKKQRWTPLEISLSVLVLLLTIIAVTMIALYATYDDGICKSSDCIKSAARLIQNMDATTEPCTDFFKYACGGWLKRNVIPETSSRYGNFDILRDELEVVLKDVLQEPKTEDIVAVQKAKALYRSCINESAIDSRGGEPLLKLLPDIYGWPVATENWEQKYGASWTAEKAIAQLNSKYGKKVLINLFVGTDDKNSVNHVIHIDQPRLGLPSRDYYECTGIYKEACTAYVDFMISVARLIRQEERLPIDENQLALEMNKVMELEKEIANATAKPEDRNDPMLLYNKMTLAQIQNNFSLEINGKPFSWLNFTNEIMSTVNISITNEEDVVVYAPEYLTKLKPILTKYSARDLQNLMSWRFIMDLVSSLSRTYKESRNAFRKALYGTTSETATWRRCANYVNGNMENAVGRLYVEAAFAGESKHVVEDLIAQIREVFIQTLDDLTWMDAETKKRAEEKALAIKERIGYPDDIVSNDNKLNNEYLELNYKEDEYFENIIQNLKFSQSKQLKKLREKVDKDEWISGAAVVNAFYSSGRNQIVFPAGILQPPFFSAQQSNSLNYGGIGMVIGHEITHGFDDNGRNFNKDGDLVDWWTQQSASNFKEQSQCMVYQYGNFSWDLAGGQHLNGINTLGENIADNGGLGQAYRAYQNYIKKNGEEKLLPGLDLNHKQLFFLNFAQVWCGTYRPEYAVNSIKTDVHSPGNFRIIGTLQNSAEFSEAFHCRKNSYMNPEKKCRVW
T10 sequence (P35367 whole entry): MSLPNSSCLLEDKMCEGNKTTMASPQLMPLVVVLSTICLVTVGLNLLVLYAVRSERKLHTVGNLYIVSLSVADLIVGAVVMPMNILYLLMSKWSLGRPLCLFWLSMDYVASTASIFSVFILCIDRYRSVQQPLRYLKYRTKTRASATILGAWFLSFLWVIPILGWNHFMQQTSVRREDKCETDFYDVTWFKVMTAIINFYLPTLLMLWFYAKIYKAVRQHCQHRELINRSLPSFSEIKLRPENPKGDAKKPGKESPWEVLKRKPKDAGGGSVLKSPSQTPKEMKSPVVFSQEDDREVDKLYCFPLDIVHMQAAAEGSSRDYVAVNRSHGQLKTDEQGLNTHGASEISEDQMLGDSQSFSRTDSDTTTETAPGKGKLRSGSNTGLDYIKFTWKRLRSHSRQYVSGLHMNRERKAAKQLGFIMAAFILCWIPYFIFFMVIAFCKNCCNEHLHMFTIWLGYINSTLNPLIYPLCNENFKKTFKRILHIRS
T6 sequence (Q9Y233 267-1055 limits assumed): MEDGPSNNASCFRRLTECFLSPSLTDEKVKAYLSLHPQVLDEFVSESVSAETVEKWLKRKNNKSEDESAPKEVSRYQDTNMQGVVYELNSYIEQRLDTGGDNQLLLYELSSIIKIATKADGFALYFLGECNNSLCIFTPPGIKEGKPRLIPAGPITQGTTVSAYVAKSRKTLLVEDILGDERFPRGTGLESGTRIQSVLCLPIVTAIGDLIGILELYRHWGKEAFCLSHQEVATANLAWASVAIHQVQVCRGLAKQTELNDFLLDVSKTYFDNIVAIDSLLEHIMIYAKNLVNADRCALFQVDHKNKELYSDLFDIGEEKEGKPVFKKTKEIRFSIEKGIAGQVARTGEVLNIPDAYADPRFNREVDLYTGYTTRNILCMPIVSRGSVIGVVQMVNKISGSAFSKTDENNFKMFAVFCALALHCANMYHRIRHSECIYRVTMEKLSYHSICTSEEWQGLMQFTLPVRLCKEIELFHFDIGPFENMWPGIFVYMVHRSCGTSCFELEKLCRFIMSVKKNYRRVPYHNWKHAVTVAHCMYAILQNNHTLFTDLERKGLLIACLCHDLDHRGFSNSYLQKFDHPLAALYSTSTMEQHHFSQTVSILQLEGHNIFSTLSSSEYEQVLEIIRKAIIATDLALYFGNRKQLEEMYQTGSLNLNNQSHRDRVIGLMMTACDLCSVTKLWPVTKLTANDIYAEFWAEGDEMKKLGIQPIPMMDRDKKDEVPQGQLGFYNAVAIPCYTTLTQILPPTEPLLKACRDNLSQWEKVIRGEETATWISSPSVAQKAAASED
T3 sequence (P09917 whole entry): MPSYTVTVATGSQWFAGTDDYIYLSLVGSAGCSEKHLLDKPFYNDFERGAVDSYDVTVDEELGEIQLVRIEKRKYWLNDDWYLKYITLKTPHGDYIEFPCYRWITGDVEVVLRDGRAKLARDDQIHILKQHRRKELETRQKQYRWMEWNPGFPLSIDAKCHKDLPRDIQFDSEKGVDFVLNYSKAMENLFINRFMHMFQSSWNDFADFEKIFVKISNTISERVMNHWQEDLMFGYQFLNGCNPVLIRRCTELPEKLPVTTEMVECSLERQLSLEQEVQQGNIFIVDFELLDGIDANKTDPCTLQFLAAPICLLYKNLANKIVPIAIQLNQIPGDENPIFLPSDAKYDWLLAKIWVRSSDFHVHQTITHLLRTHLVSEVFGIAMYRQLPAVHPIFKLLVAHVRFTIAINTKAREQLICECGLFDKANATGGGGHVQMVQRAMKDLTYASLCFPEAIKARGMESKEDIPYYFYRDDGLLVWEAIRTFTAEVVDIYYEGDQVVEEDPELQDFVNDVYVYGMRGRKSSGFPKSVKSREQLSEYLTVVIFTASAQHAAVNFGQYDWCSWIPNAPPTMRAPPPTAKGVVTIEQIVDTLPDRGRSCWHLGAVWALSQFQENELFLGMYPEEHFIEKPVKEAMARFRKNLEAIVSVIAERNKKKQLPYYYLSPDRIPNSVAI
T2 sequence (P22303 32-614): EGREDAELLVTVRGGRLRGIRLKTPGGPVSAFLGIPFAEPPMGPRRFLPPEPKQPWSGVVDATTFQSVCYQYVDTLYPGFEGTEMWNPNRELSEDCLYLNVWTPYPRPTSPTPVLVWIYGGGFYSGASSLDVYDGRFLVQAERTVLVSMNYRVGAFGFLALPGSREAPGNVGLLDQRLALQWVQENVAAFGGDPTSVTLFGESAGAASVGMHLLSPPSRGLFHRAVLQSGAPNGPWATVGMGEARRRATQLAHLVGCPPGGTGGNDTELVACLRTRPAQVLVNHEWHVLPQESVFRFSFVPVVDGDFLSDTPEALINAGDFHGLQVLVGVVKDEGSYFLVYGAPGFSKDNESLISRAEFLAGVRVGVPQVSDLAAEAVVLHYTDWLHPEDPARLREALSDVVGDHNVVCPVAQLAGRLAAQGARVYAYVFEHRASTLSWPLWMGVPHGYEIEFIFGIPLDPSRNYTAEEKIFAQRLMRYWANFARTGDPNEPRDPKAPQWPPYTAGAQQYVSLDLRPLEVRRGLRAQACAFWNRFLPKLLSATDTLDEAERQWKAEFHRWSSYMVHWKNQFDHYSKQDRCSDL
T12 sequence (P28223 whole entry): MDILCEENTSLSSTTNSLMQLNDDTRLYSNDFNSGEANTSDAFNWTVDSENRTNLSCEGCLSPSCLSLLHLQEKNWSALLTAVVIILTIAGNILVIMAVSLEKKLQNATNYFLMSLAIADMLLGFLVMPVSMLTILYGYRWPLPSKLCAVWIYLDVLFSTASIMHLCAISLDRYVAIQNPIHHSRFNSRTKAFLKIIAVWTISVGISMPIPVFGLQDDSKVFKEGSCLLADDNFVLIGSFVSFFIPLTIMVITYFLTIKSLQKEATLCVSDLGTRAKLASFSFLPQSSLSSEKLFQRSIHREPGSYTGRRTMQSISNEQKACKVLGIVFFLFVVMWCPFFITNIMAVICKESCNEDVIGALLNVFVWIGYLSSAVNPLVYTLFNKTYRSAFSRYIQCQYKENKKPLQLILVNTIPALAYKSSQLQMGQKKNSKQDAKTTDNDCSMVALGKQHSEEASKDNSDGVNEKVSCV

Cc1ccc(Cc2cc3c(=O)n([C@H]4CCCC[C@@H]4O)cnc3c3ccccc23)cn1 [MK‐7622, 3‐((1S,2S)‐2‐hydroxycyclohexyl)‐6‐((6‐methylpyridin‐3‐yl)methyl)benzo[h]quinazolin‐4(3H)‐one, reference compound]
cognition as adjunctive therapy with AChEIs [1]: did not improve cognition | patients affected by diarrhea ([1]; estimated effective dose): 15% | selectivity in a selectivity panel [2]: exhibited inhibitory activities only against 5‐lipoxygenase and phosphodiesterase 4

Cc1c(Cc2ccc(Cl)nc2)cc2c(c1Cl)OCN([C@H]1CCC[C@@H]1O)C2=O [T‐495, 8‐chloro‐6‐((6‐chloropyridin‐3‐yl)methyl)‐3‐((1S,2S)‐2‐hydroxycyclopentyl)‐7‐methyl‐2,3‐dihydro‐4H‐1,3‐benzoxazin‐4‐one]
significant inhibition or stimulation (≥50%) in panel of 106 targets [3]: No significant inhibition or stimulation (≥50%) was observed, except for two targets | level of freezing behavior during the conditioning phase ([4]; 3 mg/kg p.o.): did not change | reduced level of freezing behavior during the retention phase ([4]; 3 mg/kg p.o. 1 h before conditioning and retention): significantly reversed | reduced percentage of alternations [5]: significantly reversed | % inhibition at 10 μM [6]: 0% | inhibition at 10 µM [7]: -9% | inhibition at 10 µM [8]: -2% | inhibition at 10 µM [9]: 15% | inhibition at 10 µM [10]: 10% | inhibition at 10 µM [11]: 36% | inhibition at 10 µM [12]: 5% | % inhibition at 10 μM [13]: 0% | inhibition at 10 µM [14]: 7% | inhibition at 10 µM [15]: -4% | inhibition at 10 µM [16]: 2% | % inhibition at 10 μM [17]: 14% | % inhibition at 10 μM [18]: 9% | inhibition at 10 µM [19]: 2% | % inhibition at 10 μM [20]: -4% | % inhibition at 10 μM [21]: 2% | inhibition at 10 µM [22]: 21% | inhibition at 10 µM [23]: 20% | concentration without inhibition of [3H]‐NMS binding relative to that required for procognitive efficacy [24]: up to 100 fold | inhibition of [3H]‐NMS binding to M1R ([24]; T‐495 concentrations below 30 μmol/L): did not inhibit
